{"source": "patent EP0776155B1", "about": "“DELIVERY OF EXOGENOUS CHEMICAL SUBSTANCES TO PLANT TISSUES” (MONSANTO COMPANY, priority 1994, dated 1996)", "assay_type_in_all_cases": "in vivo", "key": {"[1]": {"system": "silvergrass (Vulpia sp., VLPSS)", "test": "Example 51: field experiment, percent control, bruising or blasting then glyphosate spray", "details": "14 days after glyphosate application", "method": "In this Example illustrative of the invention, a field experiment was conducted in the Australian Capital Territory on 5-10 cm high vegetation consisting primarily of white flatweed (Hypochoeris microcephala, HRYMI) at the rosette stage of growth and silvergrass (Vulpia sp., VLPSS) at the 1-3 tiller stage. Plots were established, 2 m wide and 10 m long, with 3 replications of each treatment.\nPlots received either no physical injury, or one of two injury treatments, a prior art method described herein as \"bruising\" and a method of the present invention described herein as \"blasting\". Bruising involved driving a 2 metric ton four-wheel drive vehicle fitted with rubber tires, twice over the plot in opposite directions. For blasting, a hand-held sandblaster was used having a container of capacity 1000 cm^3 slung under the gun body. The sandblaster was made of die-cast aluminum alloy and equipped with a 6 mm nozzle. The operating pressure was 95 lb/sq inch (655 kPa). The abrasive used was a commercial product consisting of fine glass particles.\nWithin an hour after bruising or blasting, plots received an application of glyphosate as its isopropylamine salt in the form of the aqueous concentrate formulation sold in Australia as Roundup® herbicide, diluted appropriately in water. Application was made using a hand-held boom sprayer fitted with 11001 nozzles, operating at 250 kPa pressure and delivering 90 liters/ha spray volume.\nAfter an interval of 14 days, a visual evaluation was performed to estimate herbicidal efficacy as percent control of plants in treated plots compared to untreated check plots."}, "[2]": {"system": "velvetleaf (Abutilon theophrasti, ABUTH)", "test": "Example 50: percent control, KOH chemical corrosive or garnet abrasion then glyphosate spray", "details": "11 days after glyphosate application", "method": "In this Example illustrative of the invention, velvetleaf (Abutilon theophrasti, ABUTH) seeds were planted in 4-inch (10.1-cm) square pots filled with a soil mix consisting of 50% Metromix 350 plus 50% silt loam soil to which 100 g/cu ft (3.57 kg/m^3) Osmocote fertilizer were added, and the seeds were covered with the same soil mix without added fertilizer. […] The same settings were maintained before and after treatment.\nPhysical injury in this Example was inflicted on the above-ground portions of the plants, 17 days after planting, by a propelled chemical corrosive, a 2.5% weight/weight aqueous potassium hydroxide (KOH) solution. This solution was applied using a track sprayer calibrated to deliver 20 gallons/acre (187 liters/ha) with an 8002E nozzle having a 50-mesh screen, 16 inches (41 cm) above the plant canopy. Plants were allowed to dry for 1 hour after KOH treatment. Other plants received injury by abrasion using a hand-held Sears Craftsman™ sandblaster as described in Examples 1-9. A third set of plants received no abrasion or corrosion with KOH.\nPlants were then assigned to different herbicide treatments in a factorial experimental design with 3 replications. All plants for each herbicide treatment were sprayed at the same time using a track sprayer calibrated to deliver 20 gallons/acre (187 liters/ha) water with an 8002E nozzle having a 50-mesh screen, 16 inches (41 cm) above the plant canopy. In these Examples the herbicide used was glyphosate as its isopropylamine salt, in the form of the aqueous concentrate formulation MON 2139 of Monsanto Company. Spray solutions were made from stock solutions prepared by dilution of MON 2139 in water.\nAfter an interval of 11 days, a visual evaluation was performed to estimate herbicidal efficacy as percent control of treated plants compared to untreated check plants."}, "[3]": {"system": "velvetleaf (Abutilon theophrasti, ABUTH)", "test": "Example 12: percent control, abrasion 5, 2, 1 days before glyphosate application", "details": "glyphosate rate (kg a.e./ha)", "method": "(§1) In these Examples illustrative of the invention, velvetleaf (Abutilon theophrasti, ABUTH) seeds were planted in 4-inch (10.1 cm) square pots containing 100% silt loam soil to which 35 grams/cu ft (1.25 kg/m^3) IBDU fertilizer was added, and covered with a mix of 50% Rediearth plus 50% silt loam. The pots were sub-irrigated and the seedlings thinned after emergence to 2 plants per pot.\n(§2) Abrasion was applied using propelled 200-mesh garnet exactly as described for Examples 1-9. The herbicide used in these Examples was glyphosate as its isopropylamine salt, applied as diluted MON 2139, exactly as described for Examples 1-9.\n(§3) The time period between abrasion and herbicide application was varied as follows. In Example 11, all abrasion treatments were applied within a short period of time, and herbicide applications were made 2, 4 and 24 hours after abrasion. A set of abraded plants received no herbicide at any time. In addition, herbicide applications were made to unabraded plants at two times: (i) at the time of abrasion, and (ii) 24 hours after the time of abrasion. In Example 12, all herbicide applications were made within a short period of time, and abrasion was applied 5, 2 and 1 days before herbicide application. In addition, herbicide application was made to unabraded plants.\n(§4) Three replications were performed of every treatment. After treatment, all plants were placed in the greenhouse for the remainder of the experiment, and sub-irrigated. The first replicate was placed in one block in order of the treatment list for ease of viewing and the remaining replicates were randomly placed in two separate blocks.\n(§5) After an interval of 12-14 days after herbicide application, a visual evaluation was performed to estimate herbicidal efficacy as percent control of treated plants compared to untreated check plants."}, "[4]": {"system": "velvetleaf (Abutilon theophrasti, ABUTH)", "test": "Example 11: percent control, time between abrasion and glyphosate application varied (hours)", "details": "glyphosate rate (kg a.e./ha)", "method": "as §1, §2, §3, §4, §5"}}, "data": [{"smiles": "O=C(O)CNCP(=O)(O)O", "note": "[glyphosate, N-phosphonomethylglycine]", "values": [{"measurement": "percent control VLPSS", "setting": "[1]; glyphosate rate 0.18 kg a.e./ha, injury treatment blasting", "result": 77, "unit": "%"}, {"measurement": "percent control VLPSS", "setting": "[1]; glyphosate rate 0.18 kg a.e./ha, injury treatment bruising", "result": 78, "unit": "%"}, {"measurement": "percent control VLPSS", "setting": "[1]; glyphosate rate 0.18 kg a.e./ha, injury treatment none", "result": 65, "unit": "%"}, {"measurement": "percent control VLPSS", "setting": "[1]; glyphosate rate 0.25 kg a.e./ha, injury treatment blasting", "result": 82, "unit": "%"}, {"measurement": "percent control VLPSS", "setting": "[1]; glyphosate rate 0.25 kg a.e./ha, injury treatment bruising", "result": 83, "unit": "%"}, {"measurement": "percent control VLPSS", "setting": "[1]; glyphosate rate 0.25 kg a.e./ha, injury treatment none", "result": 85, "unit": "%"}, {"measurement": "percent control VLPSS", "setting": "[1]; glyphosate rate 0.36 kg a.e./ha, injury treatment blasting", "result": 98, "unit": "%"}, {"measurement": "percent control VLPSS", "setting": "[1]; glyphosate rate 0.36 kg a.e./ha, injury treatment bruising", "result": 83, "unit": "%"}, {"measurement": "percent control VLPSS", "setting": "[1]; glyphosate rate 0.36 kg a.e./ha, injury treatment none", "result": 95, "unit": "%"}, {"measurement": "percent control of ABUTH", "setting": "[2]; glyphosate rate 0.0140 kg a.e./ha, injury by abrasion", "result": 30, "unit": "%"}, {"measurement": "percent control of ABUTH", "setting": "[2]; glyphosate rate 0.0140 kg a.e./ha, injury by corrosion (KOH)", "result": 7, "unit": "%"}, {"measurement": "percent control of ABUTH", "setting": "[2]; glyphosate rate 0.0140 kg a.e./ha, no physical injury", "result": 0, "unit": "%"}, {"measurement": "percent control of ABUTH", "setting": "[2]; glyphosate rate 0.028 kg a.e./ha, injury by abrasion", "result": 70, "unit": "%"}, {"measurement": "percent control of ABUTH", "setting": "[2]; glyphosate rate 0.028 kg a.e./ha, injury by corrosion (KOH)", "result": 13, "unit": "%"}, {"measurement": "percent control of ABUTH", "setting": "[2]; glyphosate rate 0.028 kg a.e./ha, no physical injury", "result": 0, "unit": "%"}, {"measurement": "percent control of ABUTH", "setting": "[2]; glyphosate rate 0.056 kg a.e./ha, injury by abrasion", "result": 75, "unit": "%"}, {"measurement": "percent control of ABUTH", "setting": "[2]; glyphosate rate 0.056 kg a.e./ha, injury by corrosion (KOH)", "result": 48, "unit": "%"}, {"measurement": "percent control of ABUTH", "setting": "[2]; glyphosate rate 0.056 kg a.e./ha, no physical injury", "result": 3, "unit": "%"}, {"measurement": "percent control of ABUTH", "setting": "[2]; glyphosate rate 0.11 kg a.e./ha, injury by abrasion", "result": 83, "unit": "%"}, {"measurement": "percent control of ABUTH", "setting": "[2]; glyphosate rate 0.11 kg a.e./ha, injury by corrosion (KOH)", "result": 73, "unit": "%"}, {"measurement": "percent control of ABUTH", "setting": "[2]; glyphosate rate 0.11 kg a.e./ha, no physical injury", "result": 0, "unit": "%"}, {"measurement": "percent control of ABUTH", "setting": "[2]; glyphosate rate 0.22 kg a.e./ha, injury by abrasion", "result": 96, "unit": "%"}, {"measurement": "percent control of ABUTH", "setting": "[2]; glyphosate rate 0.22 kg a.e./ha, injury by corrosion (KOH)", "result": 85, "unit": "%"}, {"measurement": "percent control of ABUTH", "setting": "[2]; glyphosate rate 0.22 kg a.e./ha, no physical injury", "result": 81, "unit": "%"}, {"measurement": "percent control of ABUTH", "setting": "[2]; glyphosate rate 0.45 kg a.e./ha, injury by abrasion", "result": 99, "unit": "%"}, {"measurement": "percent control of ABUTH", "setting": "[2]; glyphosate rate 0.45 kg a.e./ha, injury by corrosion (KOH)", "result": 91, "unit": "%"}, {"measurement": "percent control of ABUTH", "setting": "[2]; glyphosate rate 0.45 kg a.e./ha, no physical injury", "result": 87, "unit": "%"}, {"measurement": "percent control of ABUTH", "setting": "[2]; glyphosate rate 0.89 kg a.e./ha, no physical injury", "result": 100, "unit": "%"}, {"measurement": "percent control of ABUTH 12 days after glyphosate application", "setting": "[3]; abraded before 0 days, glyphosate 0.056 kg a.e./ha", "result": 79, "unit": "%"}, {"measurement": "percent control of ABUTH 12 days after glyphosate application", "setting": "[3]; abraded before 0 days, glyphosate 0.11 kg a.e./ha", "result": 95, "unit": "%"}, {"measurement": "percent control of ABUTH 12 days after glyphosate application", "setting": "[3]; abraded before 0 days, glyphosate 0.22 kg a.e./ha", "result": 100, "unit": "%"}, {"measurement": "percent control of ABUTH 12 days after glyphosate application", "setting": "[3]; abraded before 1 day, glyphosate 0.056 kg a.e./ha", "result": 77, "unit": "%"}, {"measurement": "percent control of ABUTH 12 days after glyphosate application", "setting": "[3]; abraded before 1 day, glyphosate 0.11 kg a.e./ha", "result": 92, "unit": "%"}, {"measurement": "percent control of ABUTH 12 days after glyphosate application", "setting": "[3]; abraded before 1 day, glyphosate 0.22 kg a.e./ha", "result": 100, "unit": "%"}, {"measurement": "percent control of ABUTH 12 days after glyphosate application", "setting": "[3]; abraded before 2 days, glyphosate 0.056 kg a.e./ha", "result": 76, "unit": "%"}, {"measurement": "percent control of ABUTH 12 days after glyphosate application", "setting": "[3]; abraded before 2 days, glyphosate 0.11 kg a.e./ha", "result": 93, "unit": "%"}, {"measurement": "percent control of ABUTH 12 days after glyphosate application", "setting": "[3]; abraded before 2 days, glyphosate 0.22 kg a.e./ha", "result": 100, "unit": "%"}, {"measurement": "percent control of ABUTH 12 days after glyphosate application", "setting": "[3]; abraded before 5 days, glyphosate 0.056 kg a.e./ha", "result": 52, "unit": "%"}, {"measurement": "percent control of ABUTH 12 days after glyphosate application", "setting": "[3]; abraded before 5 days, glyphosate 0.11 kg a.e./ha", "result": 73, "unit": "%"}, {"measurement": "percent control of ABUTH 12 days after glyphosate application", "setting": "[3]; abraded before 5 days, glyphosate 0.22 kg a.e./ha", "result": 97, "unit": "%"}, {"measurement": "percent control of ABUTH 12 days after glyphosate application", "setting": "[3]; abraded before 5 days, glyphosate 0.45 kg a.e./ha", "result": 100, "unit": "%"}, {"measurement": "percent control of ABUTH 14 days after glyphosate application", "setting": "[4]; abraded before 0 h, glyphosate 0.056 kg a.e./ha", "result": 70, "unit": "%"}, {"measurement": "percent control of ABUTH 14 days after glyphosate application", "setting": "[4]; abraded before 0 h, glyphosate 0.11 kg a.e./ha", "result": 78, "unit": "%"}, {"measurement": "percent control of ABUTH 14 days after glyphosate application", "setting": "[4]; abraded before 2 h, glyphosate 0.056 kg a.e./ha", "result": 73, "unit": "%"}, {"measurement": "percent control of ABUTH 14 days after glyphosate application", "setting": "[4]; abraded before 2 h, glyphosate 0.11 kg a.e./ha", "result": 85, "unit": "%"}, {"measurement": "percent control of ABUTH 14 days after glyphosate application", "setting": "[4]; abraded before 4 h, glyphosate 0.056 kg a.e./ha", "result": 79, "unit": "%"}, {"measurement": "percent control of ABUTH 14 days after glyphosate application", "setting": "[4]; abraded before 4 h, glyphosate 0.11 kg a.e./ha", "result": 94, "unit": "%"}, {"measurement": "percent control of ABUTH 14 days after glyphosate application", "setting": "[4]; abraded before 24 h, glyphosate 0.056 kg a.e./ha", "result": 45, "unit": "%"}, {"measurement": "percent control of ABUTH 14 days after glyphosate application", "setting": "[4]; abraded before 24 h, glyphosate 0.11 kg a.e./ha", "result": 76, "unit": "%"}]}]}
